The experiment deals with T1, HDAC6 enzyme (Homo sapiens, UniProt Q9UBN7).
T1 construct: transducing full length HDAC6 gene into Sf-9 insect cells; GST; purchased SignalChem; host or cells: Sf-9 insect cells
T1 sequence (Q9UBN7 1-1215): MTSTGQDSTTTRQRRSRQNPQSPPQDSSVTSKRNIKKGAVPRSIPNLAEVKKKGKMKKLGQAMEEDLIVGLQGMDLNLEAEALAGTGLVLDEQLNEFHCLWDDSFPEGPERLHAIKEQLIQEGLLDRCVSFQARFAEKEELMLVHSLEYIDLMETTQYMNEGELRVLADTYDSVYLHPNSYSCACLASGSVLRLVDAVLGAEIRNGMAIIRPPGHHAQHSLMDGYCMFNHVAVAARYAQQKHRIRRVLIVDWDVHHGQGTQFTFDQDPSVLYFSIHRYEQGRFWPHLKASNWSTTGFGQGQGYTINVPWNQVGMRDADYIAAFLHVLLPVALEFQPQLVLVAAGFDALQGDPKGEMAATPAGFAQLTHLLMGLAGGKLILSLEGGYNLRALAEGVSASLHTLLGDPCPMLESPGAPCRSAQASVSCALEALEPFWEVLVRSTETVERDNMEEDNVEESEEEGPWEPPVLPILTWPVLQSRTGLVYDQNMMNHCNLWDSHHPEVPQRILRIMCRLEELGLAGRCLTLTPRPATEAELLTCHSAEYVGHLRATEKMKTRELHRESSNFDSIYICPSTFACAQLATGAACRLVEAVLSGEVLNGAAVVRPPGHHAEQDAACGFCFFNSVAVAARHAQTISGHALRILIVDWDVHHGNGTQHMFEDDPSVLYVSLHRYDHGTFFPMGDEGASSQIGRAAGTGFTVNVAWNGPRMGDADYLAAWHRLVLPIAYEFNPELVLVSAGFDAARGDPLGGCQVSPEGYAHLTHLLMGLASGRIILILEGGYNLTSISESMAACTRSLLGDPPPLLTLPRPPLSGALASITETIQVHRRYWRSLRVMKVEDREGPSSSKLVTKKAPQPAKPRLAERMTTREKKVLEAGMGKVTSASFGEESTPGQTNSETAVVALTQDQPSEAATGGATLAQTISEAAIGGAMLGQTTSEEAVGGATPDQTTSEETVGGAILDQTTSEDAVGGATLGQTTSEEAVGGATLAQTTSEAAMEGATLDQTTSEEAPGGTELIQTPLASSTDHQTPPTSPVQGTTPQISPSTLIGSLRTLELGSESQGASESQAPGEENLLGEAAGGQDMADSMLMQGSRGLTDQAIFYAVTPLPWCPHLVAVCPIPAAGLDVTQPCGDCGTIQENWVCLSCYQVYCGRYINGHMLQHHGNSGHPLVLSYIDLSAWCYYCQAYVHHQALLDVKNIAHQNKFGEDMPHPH
As to the kind of experiment: HDAC6 enzyme inhibitory activity (HDAC-Glo I/II Assay kit). The settings on record: 10 μM, wells without enzyme = 100% inhibition; for inhibition at 10 µM: read-out: HDAC6 inhibitory rate (%) (10 μM). In kind it is biochemical. The method, boiled down:
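Luminescence read-out after 20 min reaction with HDAC-Glo substrate-developer, following 60 min room-temperature preincubation of compound with Sf-9-expressed, GST-purified full-length enzyme. Inhibition is relative to no-enzyme wells set as 100%.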

As to `O=C1c2cc(-c3nnc(C(F)F)o3)ccc2CN1[C@@H]1CCCC[C@H]1NC(=O)C1(c2ccc(F)cc2)CCC1` [Example 109, N-((1R,2R)-2-(6-(5-(difluoromethyl)-1,3,4-oxadiazol-2-yl)-1-oxo-1,3-dihydro-2H-isoindol-2-yl)cyclohexyl)-1-(4-fluorophenyl)cyclobutanecarboxamide], the inhibition at 10 µM was 97%. Still for that read-out and setting: the same measure for `O=C(CC1CCC1)N[C@@H]1CCCC[C@H]1N1Cc2ccc(-c3nnc(C(F)F)o3)cc2C1=O` [Example 110, 2-cyclobutyl-N-((1R,2R)-2-(6-(5-(difluoromethyl)-1,3,4-oxadiazol-2-yl)-1-oxo-1,3-dihydro-2H-isoindol-2-yl)cyclohexyl)acetamide]: 98%; for `O=C1c2cc(-c3nnc(C(F)F)o3)ccc2CN1c1ccccc1Br` [Example 112, 2-(2-bromophenyl)-6-(5-(difluoromethyl)-1,3,4-oxadiazol-2-yl)isoindolin-1-one]: 95%; for `O=C(N[C@@H]1CCCC[C@H]1N1Cc2ccc(-c3nnc(C(F)F)o3)cc2C1=O)[C@H]1CCCO1` [Example 113, (2R)-N-((1R,2R)-2-(6-(5-(difluoromethyl)-1,3,4-oxadiazol-2-yl)-1-oxo-1,3-dihydro-2H-isoindol-2-yl)cyclohexyl)tetrahydrofuran-2-carboxamide]: 102%.

Take `O=C(N[C@@H]1CCCC[C@H]1N1Cc2ccc(-c3nnc(C(F)F)o3)cc2C1=O)[C@H]1CCOC1` [Example 114, (3S)-N-((1R,2R)-2-(6-(5-(difluoromethyl)-1,3,4-oxadiazol-2-yl)-1-oxo-1,3-dihydro-2H-isoindol-2-yl)cyclohexyl)tetrahydrofuran-3-carboxamide]: the inhibition at 10 µM came out at 100%. The same measure, in the same setting: the same measure for `C[C@H](C1CC1)N1Cc2ccc(-c3nnc(C(F)F)o3)cc2C1=O` [Example 115, 2-((1R)-1-cyclopropylethyl)-6-(5-(difluoromethyl)-1,3,4-oxadiazol-2-yl)isoindolin-1-one]: 96%; for `C[C@@H](C1CC1)N1Cc2ccc(-c3nnc(C(F)F)o3)cc2C1=O` [Example 116, 2-((1S)-1-cyclopropylethyl)-6-(5-(difluoromethyl)-1,3,4-oxadiazol-2-yl)isoindolin-1-one]: 98%; for `CCCCO[C@H]1CC[C@H](N2Cc3ccc(-c4nnc(C(F)F)o4)cc3C2=O)CC1` [Example 117, 2-(trans-4-butoxycyclohexyl)-6-(5-(difluoromethyl)-1,3,4-oxadiazol-2-yl)isoindolin-1-one]: 96%. Consider `O=C(N[C@@H]1CCCC[C@H]1N1Cc2ccc(-c3nnc(C(F)F)o3)cc2C1=O)C1CC12CCC2` (stereo partly drawn) [Example 119, N-((1R,2R)-2-(6-(5-(difluoromethyl)-1,3,4-oxadiazol-2-yl)-1-oxo-1,3-dihydro-2H-isoindol-2-yl)cyclohexyl)spiro[2.3]hexane-1-carboxamide (optical isomer)], for which the “HDAC6 inhibitory rate (%) (10 μM)” value is reported as 100%. The same measure, in the same setting: then `O=C(N[C@@H]1CCCC[C@H]1N1Cc2ccc(-c3nnc(C(F)F)o3)cc2C1=O)C1CC1(F)F` (stereo partly drawn) [Example 121, N-((1R,2R)-2-(6-(5-(difluoromethyl)-1,3,4-oxadiazol-2-yl)-1-oxo-1,3-dihydro-2H-isoindol-2-yl)cyclohexyl)-2,2-difluorocyclopropanecarboxamide (optical isomer)], with 100%. `O=C1c2cc(-c3nnc(C(F)F)o3)ccc2CN1C1CCOCC1` [Example 122, 6-(5-(difluoromethyl)-1,3,4-oxadiazol-2-yl)-2-(tetrahydro-2H-pyran-4-yl)isoindolin-1-one]: the inhibition at 10 µM stood at 95%.

For `O=C1c2cc(-c3nnc(C(F)F)o3)ccc2CN1[C@@H]1CCCC[C@H]1n1ccnn1` [Example 123], the inhibition at 10 µM worked out at 101%. For `O=C1CCCN1[C@@H]1CCCC[C@H]1N1Cc2c(F)cc(-c3nnc(C(F)F)o3)cc2C1=O` [Example 124, 6-(5-(difluoromethyl)-1,3,4-oxadiazol-2-yl)-4-fluoro-2-((1R,2R)-2-(2-oxopyrrolidin-1-yl)cyclohexyl)isoindolin-1-one], the inhibition at 10 µM was found to be 99%. On the same count and under the same terms, the same measure for `CC(C)(C)OC(=O)N1CC[C@@H](N2Cc3ccc(-c4nnc(C(F)F)o4)cc3C2=O)[C@@H](c2ccccc2)C1` [Example 125, tert-butyl (3S,4R)-4-(6-(5-(difluoromethyl)-1,3,4-oxadiazol-2-yl)-1-oxo-1,3-dihydro-2H-isoindol-2-yl)-3-phenylpiperidine-1-carboxylate]: 98%; for `O=C1c2cc(-c3nnc(C(F)F)o3)ccc2CN1[C@@H]1CCNC[C@@H]1c1ccccc1` [Example 126, 6-(5-(difluoromethyl)-1,3,4-oxadiazol-2-yl)-2-((3S,4R)-3-phenylpiperidin-4-yl)isoindolin-1-one]: 100%. Still for that read-out and setting: then `CC(=O)N1CC[C@@H](N2Cc3ccc(-c4nnc(C(F)F)o4)cc3C2=O)[C@@H](c2ccccc2)C1` [Example 127, 2-((3S,4R)-1-acetyl-3-phenylpiperidin-4-yl)-6-(5-(difluoromethyl)-1,3,4-oxadiazol-2-yl)isoindolin-1-one], with 100%; and `COC(=O)N1CC[C@@H](N2Cc3ccc(-c4nnc(C(F)F)o4)cc3C2=O)[C@@H](c2ccccc2)C1` [Example 128, methyl (3S,4R)-4-(6-(5-(difluoromethyl)-1,3,4-oxadiazol-2-yl)-1-oxo-1,3-dihydro-2H-isoindol-2-yl)-3-phenylpiperidine-1-carboxylate], with 100%. Turning to `O=C1c2cc(-c3nnc(C(F)F)o3)ccc2CN1c1ccccc1-c1ccccc1` [Example 129, 2-(biphenyl-2-yl)-6-(5-(difluoromethyl)-1,3,4-oxadiazol-2-yl)isoindolin-1-one], the inhibition at 10 µM was found to be 100%. On the same count and under the same terms, the same measure for `CCOC(=O)N1CCC(N2Cc3ccc(-c4nnc(C(F)F)o4)cc3C2=O)CC1` [Example 130, ethyl 4-(6-(5-(difluoromethyl)-1,3,4-oxadiazol-2-yl)-1-oxo-1,3-dihydro-2H-isoindol-2-yl)piperidine-1-carboxylate]: 93%; for `O=C(N[C@@H]1CCCC[C@H]1N1Cc2ccc(-c3nnc(C(F)F)o3)cc2C1=O)OCC(F)F` [Example 131, 2,2-difluoroethyl ((1R,2R)-2-(6-(5-(difluoromethyl)-1,3,4-oxadiazol-2-yl)-1-oxo-1,3-dihydro-2H-isoindol-2-yl)cyclohexyl)carbamate]: 99%. The same measure, in the same setting: the same measure for `O=C(N[C@@H]1CCCC[C@H]1N1Cc2ccc(-c3nnc(C(F)F)o3)cc2C1=O)OCCC(F)(F)F` [Example 132, 3,3,3-trifluoropropyl ((1R,2R)-2-(6-(5-(difluoromethyl)-1,3,4-oxadiazol-2-yl)-1-oxo-1,3-dihydro-2H-isoindol-2-yl)cyclohexyl)carbamate]: 94%; for `O=C1c2cc(-c3nnc(C(F)F)o3)ccc2CN1c1ccccc1-c1ccc(C(F)(F)F)cc1` [Example 133, 6-(5-(difluoromethyl)-1,3,4-oxadiazol-2-yl)-2-(4′-(trifluoromethyl)biphenyl-2-yl)isoindolin-1-one]: 93%. On to `COc1ccc(-c2ccccc2N2Cc3ccc(-c4nnc(C(F)F)o4)cc3C2=O)cc1` [Example 134, 6-(5-(difluoromethyl)-1,3,4-oxadiazol-2-yl)-2-(4′-methoxybiphenyl-2-yl)isoindolin-1-one], for which the inhibition at 10 µM was determined as 101%.

Turning to `O=C1c2cc(-c3nnc(C(F)F)o3)cc(F)c2CN1Cc1ccccc1` [Example 136, 2-benzyl-6-(5-(difluoromethyl)-1,3,4-oxadiazol-2-yl)-4-fluoroisoindolin-1-one], the inhibition at 10 µM came out at 99%.

As to `O=C1CCCCN1[C@@H]1COCC[C@H]1N1Cc2c(F)cc(-c3nnc(C(F)F)o3)cc2C1=O` [Example 137, 6-(5-(difluoromethyl)-1,3,4-oxadiazol-2-yl)-4-fluoro-2-((3S,4R)-3-(2-oxopiperidin-1-yl)tetrahydro-2H-pyran-4-yl)isoindolin-1-one], the inhibition at 10 µM was found to be 98%.

Values taken from US10435399B2, “HDAC6 inhibitory heterocyclic compound” (TAKEDA PHARMACEUTICAL COMPANY LIMITED, priority 2017, dated 2019).
